Data taken from patent US9526728B2, “Medical use of a DPP-4 inhibitor” (Boehringer Ingelheim International GmbH, priority 2014, dated 2016).

Legend:
[1] = CKD population; need for dose adjustment; cited from earlier work
[2] = Metabolic parameters (HbA1c, active GLP-1); assay type: in vivo, rat; conditions: seven weeks; for plasma active GLP-1 levels: both sham and SNx rats, linagliptin 1.5 mg/kg/day or sitagliptin 20 mg/kg/day; for HbA1c: sham and SNx rats, linagliptin 1.5 mg/kg/day or sitagliptin 20 mg/kg/day oral gavage
Description: (§1) Briefly, animals were anesthetized with 2.5% inhaled isoflurane, the right kidney was removed via subcapsular nephrectomy and infarction of approximately two thirds of the left kidney was achieved via selective ligation of two out of the three or four branches of the left renal artery. Sham surgery consisted of laparotomy and manipulation of both kidneys before wound closure. Rats were followed for eight weeks after surgery. […] All rats were housed in a stable environment and allowed free access to Reverse Osmosis water and standard rat chow.
Blood glucose was measured with Accu-check Advantage (Roche, Mississauga, Ontario). HbA1c was measured using A1cNow+ (Bayer, Sunnyvale, Calif.). Active GLP-1 was determined using active GLP-1 (v2) kit (Meso Scale Discovery, Rockville, Md.).
Sham and SNx rats treated with vehicle, linagliptin and sitagliptin. Heart weights and kidney weights were increased in SNx rats relative to sham. HbA1c was unchanged in all treatment groups.

[3] = tested on: subtotally nephrectomized (SNx) rats; experiment: Cardiac catheterization, pressure volume loops (cardiac function); assay type: in vivo, rat; conditions: in comparison to vehicle-treated SNx rats, linagliptin 1.5 mg/kg/day or sitagliptin 20 mg/kg/day, seven weeks
Description: as §1
Cardiac catheterization was performed as previously published. Briefly, rats were anesthetized (2% isoflurane), placed on a warming pad (37 °C), intubated and ventilated using positive pressure. The right internal carotid artery was ligated cranially and a 2F miniaturized combined conductance catheter-micromanometer (Model SPR-838, Millar Instruments, Houston, Tex.) was inserted into the carotid artery and advanced into the left ventricle until stable pressure volume (PV) loops were obtained. […] All PV loops were obtained with the ventilator turned off for 5-10 seconds and the animal apneic. […] A range of functional parameters were then calculated using the pressure conductance data (Millar analysis software PVAN 3.4).

[4] = tested on: subtotally nephrectomized (SNx) rats; experiment: Cardiac gene expression (real time PCR); assay type: in vivo, rat; conditions: SNx rats vs vehicle-treated SNx; seven weeks treatment
Description: Briefly, animals were anesthetized with 2.5% inhaled isoflurane, the right kidney was removed via subcapsular nephrectomy and infarction of approximately two thirds of the left kidney was achieved via selective ligation of two out of the three or four branches of the left renal artery. Sham surgery consisted of laparotomy and manipulation of both kidneys before wound closure. Rats were followed for eight weeks after surgery. […] All rats were housed in a stable environment and allowed free access to Reverse Osmosis water and standard rat chow. RNA was isolated from homogenized rat heart tissue using TRIzol reagent (Life Technologies, Grand Island, N.Y.). Total RNA (4 μg) was treated with RQ1 DNase (1U/μl) (Promega, Madison, Wis.). DNase treated RNA (4 μg) was reverse-transcribed in a final volume of 25 μl using 0.5 μl AMV-RT (Roche Diagnostics, Laval, Quebec) in the manufacturer's buffer containing 1 mmol/L dNTPs, 0.5 μl RNase inhibitor (Roche) and 2 μg random hexamers (GE Healthcare Life Sciences, Baie d'Urfe, Quebec). […]

[5] = tested on: subtotally nephrectomized (SNx) rats; experiment: Immunohistochemistry for cardiac collagen I; assay type: in vivo, rat; conditions: SNx rats vs vehicle-treated SNx; seven weeks treatment
Description: as §1
Immunohistochemistry for fibrillar collagen type I (Southern Biotech, Birmingham, Ala.) was performed as previously described with the antibody used at a concentration of 1:400. Stained heart sections were scanned with the Aperio ScanScope system (Aperio, Vista, Calif.) and analysed with ImageScope (Aperio). Interstitial collagen I was determined as the proportional area of positive immunostaining in 10 randomly selected fields (×100 magnification).

[6] = tested on: subtotally nephrectomized (SNx) rats; experiment: Myocyte hypertrophy (H&E stained sections); assay type: in vivo, rat; conditions: SNx rats vs vehicle-treated SNx; seven weeks treatment
Description: as §1
Cardiac myocyte hypertrophy was determined on haematoxylin and eosin (H&E) stained sections, as previously reported. Myocyte cross sectional area was determined on H&E stained sections as adapted from the methods described by Frustaci and colleagues.

[7] = tested on: subtotally nephrectomized (SNx) rats; experiment: Renal function (blood pressure, urine protein excretion, GFR); assay type: in vivo, rat; conditions: seven weeks treatment; for GFR: FITC-inulin clearance
Description: as §1
For estimation of urine protein excretion, rats were individually housed in metabolic cages for 24 h with free access to tap water and standard diet. Urine protein was measured with the benzethonium chloride method. Urinary excretion of markers of renal injury was determined using Rat KidneyMAP v1.0 (Myriad RBM, Austin, Tex.) and expressed as the ratio to urine creatinine determined by autoanalyzer. Glomerular filtration rate (GFR) was determined by FITC-inulin clearance, as previously described.

[8] = tested on: sham and subtotally nephrectomized (SNx) rats; experiment: Renal structure (glomerulosclerosis index, JG-12 and collagen IV immunohistochemistry); assay type: in vivo, rat; conditions: either sham or SNx rats; seven weeks treatment
Description: as §1
A minimum of 50 glomeruli were examined in PAS-stained kidney sections from each rat. […] Glomerulosclerosis was defined as basement membrane thickening, mesangial hypertrophy and capillary occlusion. A glomerulosclerosis index (GSI) was then calculated using the formula:
[formula] Where Fi is the percentage of glomeruli in the rat kidney with a given score (i).
Immunohistochemistry for glomerular capillary density and tubulointerstitial collagen IV Immunohistochemistry of kidney tissue was performed as previously described with antibodies in the following concentrations: JG-12 1:1000 (Bender Medsystems GbdH, Vienna, Austria) and collagen IV 1:100 (Southern Biotech). Kidney sections were scanned with the Aperio ScanScope system and analysed with ImageScope, as already described. Glomerular endothelial (JG-12) immunostaining was determined in 30 glomerular profiles from each rat kidney section. For estimation of tubulointerstitial collagen IV, the proportional area of positive immunostaining (excluding glomeruli) was determined in 10 randomly selected cortical fields (×100 magnification).

[9] = tested on: patients with type 2 diabetes; conditions: recent meta-analysis; cited from earlier work

| Structure (SMILES) | route of clearance [1] | plasma active GLP-1 levels [2] | HbA1c [2] | end diastolic pressure volume relationship (EDPVR) [3] | cardiac collagen I mRNA [4] | cardiac collagen I protein [5] | cardiomyocyte size determined in H&E stained sections [6] | GFR [7] | blood pressure [7] | proteinuria [7] | cortical tubulointerstitial collagen IV immunostaining [8] | glomerular capillary density (JG-12 immunostaining) [8] | albuminuria [9] |
| --- | --- | --- | --- | --- | --- | --- | --- | --- | --- | --- | --- | --- | --- |
| Cn1c(=O)cc(N2CCC[C@@H](N)C2)n(Cc2ccccc2C#N)c1=O [alogliptin] | cleared in the urine | – | – | – | – | – | – | – | – | – | – | – | – |
| CC#CCn1c(N2CCC[C@@H](N)C2)nc2c1c(=O)n(Cc1nc(C)c3ccccc3n1)c(=O)n2C [linagliptin, 1-[(4-methyl-quinazolin-2-yl)methyl]-3-methyl-7-(2-butyn-1-yl)-8-(3-(R)-amino-piperidin-1-yl)-xanthine] | secreted via the bile | similarly increased | unchanged | significantly lower | attenuation in the overexpression | attenuation in the overexpression | neither cardiomyocyte size determined in H&E stained sections (FIGS. 2C1 and 2C2) nor α-MHC:β-MHC ratio were changed | neither linagliptin nor sitagliptin significantly affected | neither linagliptin nor sitagliptin significantly affected | neither linagliptin nor sitagliptin significantly affected | None of these markers of renal structural injury were affected | None of these markers of renal structural injury were affected | reduction in albuminuria |
| N#C[C@@H]1C[C@@H]2C[C@@H]2N1C(=O)[C@@H](N)C12CC3CC(CC(O)(C3)C1)C2 [saxagliptin] | cleared in the urine | – | – | – | – | – | – | – | – | – | – | – | – |
| N[C@@H](CC(=O)N1CCn2c(nnc2C(F)(F)F)C1)Cc1cc(F)c(F)cc1F [sitagliptin] | cleared in the urine | similarly increased | unchanged | significantly lower | attenuation in the overexpression | attenuation in the overexpression | neither cardiomyocyte size determined in H&E stained sections (FIGS. 2C1 and 2C2) nor α-MHC:β-MHC ratio were changed | neither linagliptin nor sitagliptin significantly affected | neither linagliptin nor sitagliptin significantly affected | neither linagliptin nor sitagliptin significantly affected | None of these markers of renal structural injury were affected | None of these markers of renal structural injury were affected | – |
